{"source": "ChEMBL document CHEMBL1147725", "about": "“Identification and biological characterization of 6-aryl-7-isopropylquinazolinones as novel TRPV1 antagonists that are effective in models of chronic pain” (J Med Chem, 2006)", "target": "Transient receptor potential cation channel subfamily V member 1 (Homo sapiens, UniProt Q8NER1)", "sequence (Q8NER1 whole entry)": "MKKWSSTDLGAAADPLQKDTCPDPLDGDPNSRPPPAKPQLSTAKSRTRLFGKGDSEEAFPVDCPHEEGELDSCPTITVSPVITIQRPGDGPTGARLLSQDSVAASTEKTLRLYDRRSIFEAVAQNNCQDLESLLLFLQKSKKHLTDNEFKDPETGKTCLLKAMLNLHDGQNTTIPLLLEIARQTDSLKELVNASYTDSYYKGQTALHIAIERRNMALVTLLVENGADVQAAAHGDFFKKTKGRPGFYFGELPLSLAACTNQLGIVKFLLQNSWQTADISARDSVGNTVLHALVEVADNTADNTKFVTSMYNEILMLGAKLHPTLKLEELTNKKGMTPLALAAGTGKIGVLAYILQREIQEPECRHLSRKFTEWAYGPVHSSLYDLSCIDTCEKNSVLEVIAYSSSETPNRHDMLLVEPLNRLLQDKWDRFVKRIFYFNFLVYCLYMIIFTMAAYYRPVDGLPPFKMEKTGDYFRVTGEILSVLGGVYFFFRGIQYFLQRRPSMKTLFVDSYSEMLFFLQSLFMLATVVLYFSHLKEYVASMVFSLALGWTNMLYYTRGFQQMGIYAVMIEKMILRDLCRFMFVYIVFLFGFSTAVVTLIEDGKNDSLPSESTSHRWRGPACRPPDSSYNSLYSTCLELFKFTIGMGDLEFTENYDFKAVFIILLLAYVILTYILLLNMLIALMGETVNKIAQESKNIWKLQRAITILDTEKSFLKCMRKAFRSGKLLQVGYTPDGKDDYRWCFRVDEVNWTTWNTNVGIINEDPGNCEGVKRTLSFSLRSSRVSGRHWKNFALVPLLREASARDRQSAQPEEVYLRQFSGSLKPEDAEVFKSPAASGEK", "test": "Inhibition of calcium influx evoked by capsaicin in human TRPV1 expressing cells by fluorescence assay", "assay_type": "functional"}
{"smiles": "CCCCOc1cc(-c2cc3c(=O)[nH]c(C)nc3cc2C(C)C)ccc1Cl", "values": [{"measurement": "IC50", "result": 82, "unit": "nM"}]}
